In US20140045805A1, “Fragrance Compositions and Other Compositions Which Contain Naturally Occurring Substances Found in Corals” (priority 2007, published 2014):

Experiments:
[1] = test system: healthy volunteers (men and women); test: Behavioral effects by modified DABS-70 inventory after nasal exposure; format: in vivo, human; conditions: for Sensuality cluster mean: modified DABS-70, items scored 0-4
Method: We assessed the resulting physiological responses and behavioral changes induced by nasal exposure to 12 ng pregna-5,20-dien-3β-ol in 76 volunteers (38 women and 38 men), age 18 to 46 (Table 1) using a placebo-controlled, single blind and crossover study design. The items of the modified DABS-70 were rearranged during consecutive administrations, in order to minimize the effect of learning.
Forty of the items on the standard DABS-70 questionnaire are descriptions of “ways people feel”, and subjects indicate whether they had experienced each emotion “never”, “rarely”, “sometimes”, “frequently”, or “always” in the last two weeks. The remaining 30 items on the standard DABS-70 questionnaire are personality characteristics for which subjects describe themselves as “not at all,” “a little bit,” “moderately” “quite a bit” or “extremely,” depending on the degree to which they feel each trait is typical of them. In the modified DABS-70 questionnaire, sixty-seven items were selected and assessed and during the testing the questions were randomized to minimize or prevent “learning” the questionnaire by the volunteers. This psychometric instrument was chosen because several items were of a sexual connotation and could be used to quantify the effects of pregna-5,20-dien-3β-ol on sexuality.
Subjects who participated were asked, as a baseline, to fill out the modified DABS-70 as to their personality characteristics and feelings as they currently perceived them. Each item was quantified ranging from an individual's perception of “not at all” (0) to “extremely” (4). At the beginning of the questionnaire was a statement that they might feel differently after the blind and randomized exposure to the contents of a perfumery grade smelling strip positioned on the upper lip. The baseline electrophysiological measurements were performed after the questionnaire was completed, and again 5 minutes before the second randomized exposure (FIG. 3). Twenty minutes after the first randomized exposure to control or pregna-5,20-dien-3β-ol and again 20 minutes after the second randomized exposure to control or pregna-5,20-dien-3β-ol (in both instances, 5 minutes after the second and fourth set of electrophysiological measurements), the modified DABS-70 was administered again (FIG. 4). This task took approximately 10 minutes to complete, and the order of the questions of each consecutive modified DABS-70 administered was rearranged in order to minimize the effect of learning during prior administration of the test.
Active substance (pregna-5,20-dien-3β-ol) and control were freshly prepared on 0.7 cm×10 cm perfumery grade smelling strips 24 hours before the experiment. A perfumery grade smelling strip was positioned on the upper lip of the subject for delivery of control or active substance to the nasal passages for a period of 20 minutes. Each breath carried vapors of pregna-5,20-dien-3β-ol or control (air) from the paper strip to the nasal passages.
Perfumery grade smelling strips containing either pregna-5,20-dien-3β-ol or control were prepared as follows: 100 μl of stock solution containing 100 mg pregna-5,20-dien-3β-ol/10 mL ethanol (95%) was added to a clean paper strip. Ethanol was allowed to evaporate overnight in a clean fume hood, and 1 mg of dry crystals of pregna-5,20-dien-3β-ol remained embedded in the dried perfumery grade smelling strip. Control was a perfumery grade smelling strip prepared following the same procedure but the solution was devoid of active substance.
The following assumptions were used to calculate the quantity of pregna-5,20-dien-3β-ol delivered to the nasal passages during a study session: a) the quantity of pregna-5,20-dien-3β-ol arriving to the nasal passages with each breath is ≈40 pg (determined as described below); b) the average respiratory rate at rest in men and women is ≈15 breaths per minute; and c) the subject was exposed to pregna-5,20-dien-3β-ol for 20 min during the entire study session. […]

[2] = test system: healthy volunteers (men and women); test: Local and general tolerability and safety of airborne nasal delivery; format: in vivo, human; conditions: 12 ng intranasal; for Adverse effects reported: during the intervention and 24 hours after
Method: The physiologic and psychological effects of pregna-5,20-dien-3β-ol were investigated in men and women. Additionally, the local and general tolerability and safety of pregna-5,20-dien-3β-ol delivered airborne to the nasal passages were also evaluated.
After completion of physiologic recordings and the modified DABS-70 (#3), all surface electrodes were removed and the subject went through an exit interview lasting 5 minutes. At this time the investigator recorded again the arterial blood pressure and also inquired the subject about his or her state of feelings, and also any possible adverse effect appearing during the study session.

[3] = molecular target: T1, human testicular 17α Hydroxylase/C17-20-Lyase (Homo sapiens, UniProt P05093); conditions: Li et al. 1996; Brodie et al. U.S. Pat. No. 5,994,334; cited from earlier work
T1 sequence (P05093 1-508): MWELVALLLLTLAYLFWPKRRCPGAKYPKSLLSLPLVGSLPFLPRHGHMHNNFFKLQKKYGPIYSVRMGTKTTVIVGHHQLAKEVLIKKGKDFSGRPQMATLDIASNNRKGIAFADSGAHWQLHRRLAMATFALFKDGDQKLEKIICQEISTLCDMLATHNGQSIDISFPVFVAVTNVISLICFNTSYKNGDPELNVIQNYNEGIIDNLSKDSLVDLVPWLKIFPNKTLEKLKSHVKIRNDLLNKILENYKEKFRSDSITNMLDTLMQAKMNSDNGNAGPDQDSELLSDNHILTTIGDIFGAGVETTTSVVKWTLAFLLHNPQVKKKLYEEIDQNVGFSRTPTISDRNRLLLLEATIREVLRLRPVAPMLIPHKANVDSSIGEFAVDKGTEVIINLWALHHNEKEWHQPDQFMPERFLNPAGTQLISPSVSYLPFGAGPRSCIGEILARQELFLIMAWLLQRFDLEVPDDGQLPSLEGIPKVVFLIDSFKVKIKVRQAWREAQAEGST

[4] = MALE, 12 ng nasal, modified DABS-70 item
[5] = men (N = 38), 12 ng nasal over 20 min, modified DABS-70
[6] = men and women, regardless of gender, 12 ng nasal, p<0.0001
[7] = women (N = 38), 12 ng nasal over 20 min, modified DABS-70

C=C[C@H]1CC[C@H]2[C@@H]3CC=C4C[C@@H](O)CC[C@]4(C)[C@H]3CC[C@]12C [pregna-5,20-dien-3β-ol, Pregna-5,20-dien-3β-ol]
ENERGETIC item, ACTIVE MEAN ([1]; FEMALE, 12 ng nasal, modified DABS-70 item): 2.07
LOVING item, ACTIVE MEAN [1, 4]: 2.42
WARM item, ACTIVE MEAN [1, 4]: 2.25
Arousal/Excitement cluster mean [1, 5]: 2.006
Negativity cluster mean [1, 5]: 0.246
Personal Well-Being cluster mean [1, 5]: 2.607
Social Warmth/Friendliness cluster mean [1, 5]: 2.147
Sensuality cluster mean ([1]; men (N = 38), 12 ng nasal over 20 min): 1.286
Social Warmth and Friendliness cluster, overall response versus control ([1]; men and women, regardless of gender, 12 ng nasal, p<0.00001): active>control
Arousal and Excitement cluster, overall response versus control [1, 6]: active>control
Sensuality cluster, overall response versus control [1, 6]: active>control
Negativity cluster, response versus control ([1]; men and women, 12 ng nasal): not associated with being exposed to active versus control treatment
Arousal/Excitement cluster mean [1, 7]: 1.857
Negativity cluster mean [1, 7]: 0.238
Social Warmth/Friendliness cluster mean [1, 7]: 1.92
Sensuality cluster mean ([1]; women (N = 38), 12 ng nasal over 20 min): 1.446
Arterial blood pressure, beginning of session vs exit interview [2]: absence of significant arterial blood pressure difference
Tolerability ([2]; airborne, all volunteers of both gender groups): well tolerated
Adverse effects reported [2]: no adverse effects reported
Adverse effects reported ([2]; listed as Pregna-5,20-dien-3β-ol): no reports of local or general adverse side effects
Local nasal discomfort / clinical examination of the nasal passages ([2]; end of the recording session): did not reveal local lesions and/or inflammation
Inhibition of human testicular 17α Hydroxylase/C17-20-Lyase [3]: little activity
